From paper PMC8070648, “Simultaneous Visualization of ^161Tb- and ^177Lu-Labeled Somatostatin Analogues Using Dual-Isotope SPECT Imaging” (Pharmaceutics, 2021)

How the values were obtained:
[1] = n-octanol/PBS distribution coefficient (logD), shake-flask method; type: physicochemical; conditions: PBS pH 7.4; average ± SD
Description: DOTA-[Tyr^3]-octreotide (DOTATOC) was kindly provided by ITM Medical Isotopes GmbH, Munich, Germany.
Figure S3. Graphs of bars representing the percentage of intact radiopeptide investigated at 1 h, 4 h, and 24 h after preparation and dilution in saline (10 MBq/250 μL). (A) Percentage of intact radiopeptide in solution in the absence of ascorbic acid; (B) Percentage of intact radiopeptide in solution in the presence of ascorbic acid.
S4. Determination of n‐Octanol/PBS Distribution Coefficients (LogD Values) Purpose: The n‐octanol/PBS distribution coefficients (logD values) were assessed for each radiopeptide in order to investigate their hydrophilicity and enable comparison of […]
DOTA‐LM3) were determined by a shake‐flask method, as previously reported. […] The logD values were calculated as the logarithm of the ratio of counts per minute (cpm) measured in the n‐octanol phase relative to the cpm measured in the PBS pH 7.4 phase. The experiments were performed three times with five replicates for each radiopeptide and the logD value was expressed as the average ± standard deviation (SD) of the values obtained in each experiment. […]
Methods: A potential blockade of the uptake of [161Tb]Tb‐DOTA‐LM3 into AR42J cells was determined in the presence of >1000‐fold excess unlabeled DOTANOC or DOTA‐LM3 relative to the radiopeptide using the same protocol as reported in the main article. […]

[2] = system: AR42J tumor-bearing mice; test: Biodistribution in AR42J tumor-bearing nude mice; type: in vivo; conditions: i.v. 5 MBq, 1 nmol/mouse
Description: Five-week-old female CD-1 nude mice were purchased from Charles River Laboratories (Sulzfeld, Germany).

Q: Which “logD value (n-octanol/PBS distribution coefficient)” value [1] does the source give for `C[C@@H](O)[C@@H]1NC(=O)[C@H](CCCCN)NC(=O)[C@@H](Cc2c[nH]c3ccccc23)NC(=O)[C@H](Cc2ccc(O)cc2)NC(=O)[C@@H](NC(=O)[C@@H](Cc2ccccc2)NC(=O)CN2CCN(CC(=O)O)CCN(CC(=O)O)CCN(CC(=O)O)CC2)CSSC[C@@H](C(=O)N[C@H](CO)[C@@H](C)O)NC1=O` [[^161Tb]Tb-DOTATOC] [metal not drawn] here?
A: Its value is −3.3 ± 0.2.

Q: Which “logD value (n-octanol/PBS distribution coefficient)” value [1] does the source give for `C[C@@H](O)[C@@H]1NC(=O)[C@H](CCCCN)NC(=O)[C@@H](Cc2c[nH]c3ccccc23)NC(=O)[C@H](Cc2ccc(O)cc2)NC(=O)[C@@H](NC(=O)[C@@H](Cc2ccccc2)NC(=O)CN2CCN(CC(=O)O)CCN(CC(=O)O)CCN(CC(=O)O)CC2)CSSC[C@@H](C(=O)N[C@H](CO)[C@@H](C)O)NC1=O` [[^177Lu]Lu-DOTATOC] [metal not drawn, reference compound] here?
A: The value was −3.1 ± 0.2.

Q: What about the “AR42J Tumor” value ([2]; 2 h p.i.) of the same compound?
A: Its value is 8.9 ± 1.5 % IA/g.

Q: What about the Adrenals ([2]; 2 h p.i.) of the same compound?
A: The Adrenals was 0.28 ± 0.08 % IA/g.

Q: What about the Blood ([2]; 2 h p.i.) of the same compound?
A: The Blood was no more than 0.10 % IA/g.

Q: What about the Femur ([2]; 2 h p.i.) of the same compound?
A: Its Femur is no more than 0.10 % IA/g.

Q: What about the Heart ([2]; 2 h p.i.) of the same compound?
A: The Heart was no more than 0.10 % IA/g.

Q: What about the Intestines ([2]; 2 h p.i.) of the same compound?
A: Its Intestines is 0.20 ± 0.05 % IA/g.

Q: What about the Liver ([2]; 2 h p.i.) of the same compound?
A: Its Liver is 0.26 ± 0.07 % IA/g.

Q: What about the Lung ([2]; 2 h p.i.) of the same compound?
A: Its Lung is 0.37 ± 0.06 % IA/g.

Q: And the Muscle ([2]; 2 h p.i.)?
A: Its Muscle is no more than 0.10 % IA/g.

Q: And the Pancreas ([2]; 2 h p.i.)?
A: Its Pancreas is 0.80 ± 0.13 % IA/g.

Q: And the Stomach ([2]; 2 h p.i.)?
A: The Stomach was 0.65 ± 0.11 % IA/g.

Q: And the Blood ([2]; 24 h p.i.)?
A: The Blood was no more than 0.10 % IA/g.

Q: And the Femur ([2]; 24 h p.i.)?
A: The Femur was no more than 0.10 % IA/g.

Q: What about the Heart ([2]; 24 h p.i.) of the same compound?
A: The Heart was no more than 0.10 % IA/g.

Q: What about the Intestines ([2]; 24 h p.i.) of the same compound?
A: The Intestines was no more than 0.10 % IA/g.

Q: And the Kidneys ([2]; 24 h p.i.)?
A: The Kidneys was 5.9 ± 2.1 % IA/g.

Q: And the Liver ([2]; 24 h p.i.)?
A: Its Liver is 0.13 ± 0.02 % IA/g.

Q: And the Muscle ([2]; 24 h p.i.)?
A: The Muscle was no more than 0.10 % IA/g.

Q: And the Pancreas ([2]; 24 h p.i.)?
A: The Pancreas was 0.21 ± 0.04 % IA/g.

Q: And the Spleen ([2]; 24 h p.i.)?
A: The Spleen was no more than 0.10 % IA/g.
